Values of other authors in patent US10959921B2, “Emulsifying system for microemulsions with high skin tolerance” (Henkel AG & Co. KGaA, priority 2017, dated 2021).

Conditions: concentrations above about 1.5 wt. %

Question: For lauryl glucoside, which “Skin tolerance in leave-on applications” value is on record?
Answer: skin intolerances
